Source: PubChem BioAssay (NCI)
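These data come from cells grown in 96-well plates and exposed to compound for 48 hours at five concentrations. GI50: concentration for 50% inhibition of growth. TGI: concentration producing complete growth inhibition.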

How the values were obtained:
Experiment in all cases: growth of human tumour cells (NCI), 48 h
HS 578T breast = system: HS 578T breast
NCI-H460 lung = system: NCI-H460 lung
HT29 colon = system: HT29 colon
SNB-75 CNS = system: SNB-75 CNS
HOP-62 NSCLC = system: HOP-62 NSCLC
SF-539 CNS = system: SF-539 CNS
SK-OV-3 ovarian = system: SK-OV-3 ovarian
BT-549 breast = system: BT-549 breast
HCC-2998 colon = system: HCC-2998 colon
NCI-H522 lung = system: NCI-H522 lung
SK-MEL-28 melanoma = system: SK-MEL-28 melanoma
IGROV1 ovarian = system: IGROV1 ovarian
UACC-257 melanoma = system: UACC-257 melanoma
M14 melanoma = system: M14 melanoma
UACC-62 melanoma = system: UACC-62 melanoma
MDA-MB-435 = system: MDA-MB-435
SN12C renal = system: SN12C renal
786-0 renal = system: 786-0 renal
MCF7 breast = system: MCF7 breast
LOX IMVI melanoma = system: LOX IMVI melanoma
SW-620 colon = system: SW-620 colon
OVCAR-4 ovarian = system: OVCAR-4 ovarian
UO-31 renal = system: UO-31 renal
MALME-3M melanoma = system: MALME-3M melanoma
CCRF-CEM leukemia = system: CCRF-CEM leukemia
EKVX NSCLC = system: EKVX NSCLC
TK-10 renal = system: TK-10 renal
CAKI-1 renal = system: CAKI-1 renal
HCT-116 colon = system: HCT-116 colon
OVCAR-5 ovarian = system: OVCAR-5 ovarian
NCI-H23 lung = system: NCI-H23 lung
SF-268 CNS = system: SF-268 CNS
SK-MEL-5 melanoma = system: SK-MEL-5 melanoma
SNB-19 CNS = system: SNB-19 CNS
ACHN renal = system: ACHN renal
A549 NSCLC = system: A549 NSCLC
NCI-H226 lung = system: NCI-H226 lung
KM12 colon = system: KM12 colon
OVCAR-3 ovarian = system: OVCAR-3 ovarian
SK-MEL-2 melanoma = system: SK-MEL-2 melanoma
SR leukemia = system: SR leukemia
MOLT-4 leukemia = system: MOLT-4 leukemia
NCI/ADR-RES ovarian = system: NCI/ADR-RES ovarian
U251 CNS = system: U251 CNS
HCT-15 colon = system: HCT-15 colon
RPMI-8226 leukemia = system: RPMI-8226 leukemia
K-562 leukemia = system: K-562 leukemia
COLO 205 colon = system: COLO 205 colon
DU-145 prostate = system: DU-145 prostate
MDA-MB-231 breast = system: MDA-MB-231 breast
RXF 393 renal = system: RXF 393 renal
A498 renal = system: A498 renal
SF-295 CNS = system: SF-295 CNS
PC-3 prostate = system: PC-3 prostate
HOP-92 NSCLC = system: HOP-92 NSCLC
OVCAR-8 ovarian = system: OVCAR-8 ovarian
HL-60(TB) leukemia = system: HL-60(TB) leukemia
T-47D breast = system: T-47D breast

Structure (SMILES): Cc1ccc(-c2nc3nc(-c4ccc(F)cc4)nc(N4CCNCC4)c3o2)cc1
- GI50 (HS 578T breast): 2.06 µM
- TGI (HS 578T breast): 5.12 µM
- GI50 (NCI-H460 lung): 1.94 µM
- TGI (NCI-H460 lung): 3.77 µM
- GI50 (HT29 colon): 1.86 µM
- TGI (HT29 colon): 3.93 µM
- GI50 (SNB-75 CNS): 11.6 µM
- TGI (SNB-75 CNS): 23.9 µM
- GI50 (HOP-62 NSCLC): 16.4 µM
- TGI (HOP-62 NSCLC): 37.9 µM
- GI50 (SF-539 CNS): 1.67 µM
- TGI (SF-539 CNS): 3.12 µM
- GI50 (SK-OV-3 ovarian): 18.7 µM
- TGI (SK-OV-3 ovarian): 34.4 µM
- GI50 (BT-549 breast): 13.6 µM
- TGI (BT-549 breast): 30.1 µM
- GI50 (HCC-2998 colon): 4.11 µM
- TGI (HCC-2998 colon): 15.8 µM
- GI50 (NCI-H522 lung): 2.18 µM
- TGI (NCI-H522 lung): 6.19 µM
- GI50 (SK-MEL-28 melanoma): 14.9 µM
- TGI (SK-MEL-28 melanoma): 28.7 µM
- GI50 (IGROV1 ovarian): 1.68 µM
- TGI (IGROV1 ovarian): 3.16 µM
- GI50 (UACC-257 melanoma): 18.4 µM
- TGI (UACC-257 melanoma): 37.6 µM
- GI50 (M14 melanoma): 1.92 µM
- TGI (M14 melanoma): 3.79 µM
- GI50 (UACC-62 melanoma): 15.4 µM
- TGI (UACC-62 melanoma): 29.9 µM
- GI50 (MDA-MB-435): 1.78 µM
- TGI (MDA-MB-435): 3.24 µM
- GI50 (SN12C renal): 5.54 µM
- TGI (SN12C renal): 19.8 µM
- GI50 (786-0 renal): 1.76 µM
- TGI (786-0 renal): 3.34 µM
- GI50 (MCF7 breast): 1.66 µM
- TGI (MCF7 breast): 3.51 µM
- GI50 (LOX IMVI melanoma): 1.66 µM
- TGI (LOX IMVI melanoma): 3.07 µM
- GI50 (SW-620 colon): 1.76 µM
- TGI (SW-620 colon): 3.61 µM
- GI50 (OVCAR-4 ovarian): 1.89 µM
- TGI (OVCAR-4 ovarian): 3.5 µM
- GI50 (UO-31 renal): 1.46 µM
- TGI (UO-31 renal): 2.79 µM
- GI50 (MALME-3M melanoma): 6.94 µM
- TGI (MALME-3M melanoma): 19.6 µM
- GI50 (CCRF-CEM leukemia): 1.91 µM
- TGI (CCRF-CEM leukemia): 4.74 µM
- GI50 (EKVX NSCLC): 4.53 µM
- TGI (EKVX NSCLC): 17.3 µM
- GI50 (TK-10 renal): 2.07 µM
- TGI (TK-10 renal): 6.38 µM
- GI50 (CAKI-1 renal): 1.55 µM
- TGI (CAKI-1 renal): 2.92 µM
- GI50 (HCT-116 colon): 1.7 µM
- TGI (HCT-116 colon): 3.32 µM
- GI50 (OVCAR-5 ovarian): 1.97 µM
- TGI (OVCAR-5 ovarian): 4.54 µM
- GI50 (NCI-H23 lung): 12 µM
- TGI (NCI-H23 lung): 27.6 µM
- GI50 (SF-268 CNS): 1.93 µM
- TGI (SF-268 CNS): 4.35 µM
- GI50 (SK-MEL-5 melanoma): 15.4 µM
- TGI (SK-MEL-5 melanoma): 29 µM
- GI50 (SNB-19 CNS): 5.97 µM
- TGI (SNB-19 CNS): 19.8 µM
- GI50 (ACHN renal): 1.79 µM
- TGI (ACHN renal): 3.19 µM
- GI50 (A549 NSCLC): 2.1 µM
- TGI (A549 NSCLC): 4.74 µM
- GI50 (NCI-H226 lung): 10.6 µM
- TGI (NCI-H226 lung): 26.7 µM
- GI50 (KM12 colon): 1.88 µM
- TGI (KM12 colon): 3.61 µM
- GI50 (OVCAR-3 ovarian): 1.86 µM
- TGI (OVCAR-3 ovarian): 3.5 µM
- GI50 (SK-MEL-2 melanoma): 14.9 µM
- TGI (SK-MEL-2 melanoma): 35.4 µM
- GI50 (SR leukemia): 0.323 µM
- TGI (SR leukemia): 1.13 µM
- GI50 (MOLT-4 leukemia): 2.1 µM
- TGI (MOLT-4 leukemia): 4.42 µM
- GI50 (NCI/ADR-RES ovarian): 2.11 µM
- TGI (NCI/ADR-RES ovarian): 4.47 µM
- GI50 (U251 CNS): 1.95 µM
- TGI (U251 CNS): 4.03 µM
- GI50 (HCT-15 colon): 1.67 µM
- TGI (HCT-15 colon): 3.38 µM
- GI50 (RPMI-8226 leukemia): 2.36 µM
- TGI (RPMI-8226 leukemia): 5.49 µM
- GI50 (K-562 leukemia): 1.46 µM
- TGI (K-562 leukemia): 5.44 µM
- GI50 (COLO 205 colon): 2.1 µM
- TGI (COLO 205 colon): 4.64 µM
- GI50 (DU-145 prostate): 2.6 µM
- TGI (DU-145 prostate): 6.45 µM
- GI50 (MDA-MB-231 breast): 1.86 µM
- TGI (MDA-MB-231 breast): 3.63 µM
- GI50 (RXF 393 renal): 10.7 µM
- TGI (RXF 393 renal): 23.2 µM
- GI50 (A498 renal): 16.1 µM
- TGI (A498 renal): 30.5 µM
- GI50 (SF-295 CNS): 18.3 µM
- TGI (SF-295 CNS): 33.9 µM
- GI50 (PC-3 prostate): 1.91 µM
- TGI (PC-3 prostate): 4.69 µM
- GI50 (HOP-92 NSCLC): 4.5 µM
- TGI (HOP-92 NSCLC): 22.6 µM
- GI50 (OVCAR-8 ovarian): 2.35 µM
- TGI (OVCAR-8 ovarian): 5.82 µM
- GI50 (HL-60(TB) leukemia): 1.91 µM
- TGI (HL-60(TB) leukemia): 4.3 µM
- GI50 (T-47D breast): 2.3 µM
- TGI (T-47D breast): 6.92 µM
